Where a name gives a salt, the structure may show the parent alone.
Key:
[1] = Iron saturation of transferrin samples by ICP-AES; assay type: physicochemical
Procedure: Protein purity was determined by SDS-PAGE. Iron saturation levels were determined using ICP-AES in accordance with the procedures outlined in Manley et al., J Biol Inorg Chem (2009) 14:61-74, the contents of which are incorporated herein by reference.

SH-SY5Y cells [2] = assay: Neurite outgrowth (Outgrowth Fold Change) in undifferentiated SH-SY5Y cells; assay type: cell-based, human; settings: for neurogenesis / differentiation (neurite outgrowth): all proteins 0.2 mg/mL; for neurite outgrowth or differentiation: FIG. 5; for neurite outgrowth / differentiation over the concentration range: DFO compared with ApoTf
Procedure: (§1) Undifferentiated SH-SY5Y cells were seeded into 96 well clear bottom plates in media containing 0.1% FBS. A serum-free base media was utilized as recommended by the supplier for SH-SY5Y cells (Sigma, Cat #94030304-1VL). Twenty-four hours after seeding cells, a 3× stock solution of ApoTf, final concentrations indicated on the x-axis, in serum free base media was added to the cells. ApoTf was obtained and purified from pooled human plasma and dosed at a final concentration of 0.2 mg/mL. Cells were allowed to differentiate for 6 days. Neurite growth was assessed by imaging and image analysis. At the time of analysis, a 10× solution of Tubulin Tracker (Molecular Probes, T34075) and Hoechst 33342 (Molecular Probes #H3570) nuclear stain was prepared.
Briefly, Tubulin Tracker dissolved in DMSO was diluted 1:1 with Pluronic F-127 and further diluted into HBSS to generate a 10× solution. Hoechst 33342 was added to the HBSS-Tubulin Tracker solution at 10 μg/mL to generate a 10× nuclear stain. The 10× staining solution (10 μL) was added directly to treated assay wells and incubated at 37° C. for 30 minutes. Following incubation, 110 μL of 0.4% Trypan Blue was added directly to assay wells and imaged on a Molecular Devices Nano imaging instrument. Nine images/well were acquired in the blue (Nuclei) and green (Tubulin) fluorescent channels for each image.
(§2) After obtaining images, the MetaExpress Neurite Outgrowth analysis module (Molecular Devices) was used to identify cells, cell bodies, and quantify neurites. The total number of neurite branches were divided by the total number of cells imaged to account for different numbers of cells in each test well. The Outgrowth Fold Change was determined by setting the untreated control cells to a value of 1 with all other treatments shown relative to untreated control.

HIF-1α = settings: undifferentiated SH-SY5Y; US2016008437; cited from earlier work
[3] = test system: primary human brain cortex-derived neural progenitor cells; assay: Differentiation of primary human neural progenitor cells to neurons and astrocytes; assay type: cell-based; settings: ApoTf 0.8 mg/mL, 72 hours
Procedure: Neural progenitor cells maintained as neurospheres were obtained from Lonza (PT-2599). Cells were thawed from a frozen vial of neurospheres and cultured in Human NeuroCult™ NS-A Complete Proliferation media (Stemcell Technologies) for 2 weeks. Neurospheres were dissociated to single cells and plated in Laminin coated wells of assay plates. The neural progenitor cells were seeded in NeuroCult™ NS-A Basal media containing 1/10th concentration of the recommended proliferation supplements, in the absence or presence of ApoTf (0.8 mg/mL) for 72 hours. At the time of analysis, cells were fixed with paraformaldehyde, stained for β-III-tubulin (R&D Systems, MAB1195) and GFAP (Invitrogen, PA3-16727), and imaged on a Molecular Devices Nano imaging instrument. Image analysis was performed by assessing the relative numbers of cells staining positive for β-III-tubulin or GFAP. Values for the indicated conditions are shown with standard deviations as “% β-III-Tubulin Positive” cells (FIG. 2A) or “% GFAP Positive” cells (FIG. 2B).

SH-SY5Y cells [4] = assay: β-III-tubulin staining intensity in SH-SY5Y cells; assay type: cell-based, human; settings: FIG. 1D
Procedure: In this experiment, the SH-SY5Y cells were differentiated as described supra. At the time of analysis, cells were fixed with paraformaldehyde, stained for β-III-tubulin (R&D Systems, MAB1195), and imaged on a Molecular Devices Nano imaging instrument. Image analysis was performed by assessing the fluorescent intensity of cells stained with β-III-tubulin. Background from secondary antibody alone was subtracted from all values. Values are shown with standard deviations as “β-III-Tubulin Staining Intensity” for the indicated conditions.

[5] = test system: MPTP-induced Parkinson's Disease in mice; assay: Kinematic gait analysis in MPTP-induced Parkinson's Disease mice; assay type: in vivo, C57BI/6J mice; settings: ApoTf 350 mg/kg i.p. once a day, days 1-7; analysis on day 7; n=15
Procedure: Animal experiments were performed at Charles River Laboratories (Finland), as specified in the license authorized by the national Animal Experiment Board of Finland and according to the National Institutes of Health (Bethesda, Md., USA) guidelines for the care and use of laboratory animals. Eight to twelve-week-old, C57BI/6J mice were housed at a standard temperature (22±1° C.) and in a light-controlled environment (lights on from 7 am to 8 pm) with ad libitum access to food and water.
Solutions of MPTP were prepared by dissolving MPTP hydrochloride in sterile saline at 2.42 mg/mL; corresponding to 2.0 mg/mL of active compound. To induce Parkinson's Disease, the MPTP was given by intraperitoneal injection twice a day at 20 mg/kg. […]
The captured videos of each mouse were first converted to the software-readable format. […] Gait pattern and movement analysis assessed 100 different parameters, including but not limited to stride time, swing time during a stride, speed, step width, stance and interlimb coordination. The data was analysed by using principal component analysis (PCA). The overall gait analysis was based on the PCA of all parameters for each mouse, with the obtained value showing the overall differences, measured as a “distance”, between control mice and MPTP, or MPTP plus ApoTf mice. […]

SH-SY5Y cells [6] = assay: Cell number / proliferation of SH-SY5Y cells; assay type: cell-based, human
Procedure: as §1, with “ApoTf was obtained and purified from pooled human plasma and dosed at a final concentration of 0.2 mg/mL.” left out
Briefly, Tubulin Tracker dissolved in DMSO was diluted 1:1 with Pluronic F-127 and further diluted into HBSS to generate a 10× solution. Hoechst 33342 was added to the HBSS-Tubulin Tracker solution at 10 μg/mL to generate a 10× nuclear stain. The 10× staining solution (10 μL) was added directly to treated assay wells and incubated at 37° C. for 30 minutes. […]
as §2, with “The total number of neurite branches were divided by the total number of cells imaged to account for different numbers of cells in each test well.” left out

[7] = FIG. 1C, 0.1 mg/mL ApoTf vs untreated control

ApoTransferrin C: apo-transferrin sample, Grifols, prepared in house
Iron Saturation (%) [1]: 0.24%

recombinant ApoTf: recombinant wild-type human transferrin, SEQ ID NO: 1, expressed in 293-6E cells
neurogenesis / differentiation (neurite outgrowth) (SH-SY5Y cells [2]; FIG. 3B): did induce neurogenesis

O=C(O)CNC(=O)c1c(O)c2ccccc2n(Cc2ccccc2)c1=O [IOX2, N-[[1,2-Dihydro-4-hydroxy-2-oxo-1-(phenylmethyl)-3-quinolinyl]carbonyl]-glycine, reference compound]
concentration inducing up-regulation of HIF-1α (HIF-1α): 1 µM | neurite outgrowth or differentiation (SH-SY5Y cells [2]; 4 μM IOX2): no effect was observable | neurite outgrowth or differentiation (SH-SY5Y cells [2]; IOX2-treated cells): no neurite outgrowth or differentiation was observed

ApoTf: iron-free form of transferrin protein, purified from pooled human plasma
neurite outgrowth (SH-SY5Y cells [2]; FIG. 1A, ApoTf up to 0.8 mg/mL, 6 days): induce neurite outgrowth in a dose dependent manner | neurite/tubulin outgrowth (tubulin staining) (SH-SY5Y cells [2]; [7]): promoting induction of neurite/tubulin outgrowth | neurite outgrowth / differentiation over the concentration range (SH-SY5Y cells [2]; FIG. 3A): continues to increase differentiation even up to 9.9 μM | neurogenesis / differentiation (neurite outgrowth) (SH-SY5Y cells [2]; FIG. 3B): did induce neurogenesis | differentiation (neurite outgrowth), factor combined with ApoTf (SH-SY5Y cells [2]; FIGS. 7A-7D, ApoTf 0.1 mg/mL plus neurotrophic factor): synergistic effect with other neurotrophic factors and peptides | Iron Saturation (%) [1]: < 0.3% | % β-III-tubulin positive cells (neurons) ([3]; FIG. 2A): dramatically increases the percentage of cells differentiated to neurons | % GFAP positive cells (astrocytes) ([3]; FIG. 2B): dramatically increases | β-III-Tubulin Staining Intensity (SH-SY5Y cells [4]): caused an increase in β-III-tubulin protein | movement and gait (Distance from Control, PCA) [5]: significantly ameliorated | cell numbers (cell proliferation) (SH-SY5Y cells [6]; FIG. 1B, up to 0.8 mg/mL apo-transferrin): concentration dependent increase in cell numbers | cell proliferation (nuclear staining) (SH-SY5Y cells [6]; [7]): profound effect on promoting cell proliferation

C[C@@H](N)[C@H]1CC[C@H](C(=O)Nc2ccncc2)CC1.Cl.Cl [Y-27632, trans-4-[(1R)-1-Aminoethyl]-N-4-pyridinylcyclohexanecarboxamide dihydrochloride, reference compound]
neurogenic effect (neurite outgrowth), alone (SH-SY5Y cells [2]; FIG. 8, Y-27632 50 μM): strongly neurogenic | neurogenic effect (neurite outgrowth), in the presence of ApoTf (SH-SY5Y cells [2]; FIG. 8, Y-27632 50 μM plus ApoTf 0.1 mg/mL): synergistic showing an effect beyond that exhibited by either molecule alone

CC(=O)N(O)CCCCCNC(=O)CCC(=O)N(O)CCCCCNC(=O)CCC(=O)N(O)CCCCCN [DFO, Deferoxamine mesylate, reference compound]
concentration of maximal neurite outgrowth (SH-SY5Y cells [2]; FIG. 3A): 1 to 3 µM | neurite outgrowth / differentiation over the concentration range (SH-SY5Y cells [2]; FIG. 3A): little neurite formation beyond that concentration

HoloTf: iron-saturated form of transferrin, purified from pooled human plasma [reference compound]
neurogenesis / differentiation (neurite outgrowth) (SH-SY5Y cells [2]; FIG. 4): unable to induce differentiation | Iron Saturation (%) [1]: 100%

ApoTransferrin B: apo-transferrin sample, Grifols, prepared in house
Iron Saturation (%) [1]: 0.59%

ApoTransferrin A: apo-transferrin sample, Grifols, prepared in house
Iron Saturation (%) [1]: 0.27%

— patent US20230263863A1, “COMPOSITIONS HAVING NEUROREGENERATIVE APPLICATIONS” (GRIFOLS WORLDWIDE OPERATIONS LIMITED, priority 2020, published 2023)
